This passage reports IC50 results from PubChem BioAssay AID1671241.

The experiment deals with Macrophage colony-stimulating factor 1 receptor (Homo sapiens) (UniProt P07333). Kind of experiment: inhibition of human FMS receptor kinase activity – biochemical, Z'-LYTE, FRET, protease-coupled, direct format, dose response (AID 1671241). To be noted: Z'-LYTE FRET kinase assay, CSF1R.

pIC50: −log10 of the molar value.

Chain of Macrophage colony-stimulating factor 1 receptor (Homo sapiens) (P07333 whole entry, looked up): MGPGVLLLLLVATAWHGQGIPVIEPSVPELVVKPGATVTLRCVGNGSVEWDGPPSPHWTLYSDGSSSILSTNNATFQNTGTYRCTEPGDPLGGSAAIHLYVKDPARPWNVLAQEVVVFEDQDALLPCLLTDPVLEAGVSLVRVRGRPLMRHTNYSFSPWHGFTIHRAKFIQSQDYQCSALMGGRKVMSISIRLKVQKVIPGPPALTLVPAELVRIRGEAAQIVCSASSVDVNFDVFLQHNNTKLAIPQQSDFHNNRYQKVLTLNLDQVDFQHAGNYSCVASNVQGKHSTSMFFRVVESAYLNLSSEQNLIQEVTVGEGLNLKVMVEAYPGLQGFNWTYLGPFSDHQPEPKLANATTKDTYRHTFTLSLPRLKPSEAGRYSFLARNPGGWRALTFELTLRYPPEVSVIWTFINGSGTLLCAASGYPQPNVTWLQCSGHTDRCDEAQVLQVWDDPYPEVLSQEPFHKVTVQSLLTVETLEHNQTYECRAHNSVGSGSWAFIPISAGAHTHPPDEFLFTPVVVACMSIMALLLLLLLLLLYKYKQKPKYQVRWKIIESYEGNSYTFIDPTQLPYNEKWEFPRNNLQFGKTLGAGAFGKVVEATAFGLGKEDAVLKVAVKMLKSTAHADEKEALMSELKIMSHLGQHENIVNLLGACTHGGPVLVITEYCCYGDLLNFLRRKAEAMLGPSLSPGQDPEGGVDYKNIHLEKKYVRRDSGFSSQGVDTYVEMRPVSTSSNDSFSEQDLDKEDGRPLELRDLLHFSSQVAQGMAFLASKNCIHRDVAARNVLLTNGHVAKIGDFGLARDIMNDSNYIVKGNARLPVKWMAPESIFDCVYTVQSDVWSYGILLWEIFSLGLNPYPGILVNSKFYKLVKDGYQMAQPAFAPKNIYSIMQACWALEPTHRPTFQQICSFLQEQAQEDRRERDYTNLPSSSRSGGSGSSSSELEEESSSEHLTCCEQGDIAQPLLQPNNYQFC

On to `COc1cc2ncnc(Nc3cccc(Cl)c3)c2cc1OC`, for which the pIC50 was 5.22.
